Values quoted from earlier work in patent publication US20230097323A1, “Method and Devices for Transdermal Delivery of Hydrogen Gas for Therapeutic Purposes” (Hyderm Innovations LLC, priority 2021, published 2023).

Experiments:
[1] = transdermal supply, bag fitted snugly to the skin
[2] = at ambient temperature

SMILES: [HH] [hydrogen, Molecular hydrogen]
- time until hydrogen concentration in the skin reaches a plateau [1]: 40 to 60 min
- solubility of hydrogen in water [2]: about 1.6 mg/l
